Our source for the TGI and GI50 values is PubChem BioAssay (NCI).

As usually defined, the TGI is the concentration at which net growth stops. By GI50 is commonly meant the concentration giving 50% growth inhibition.

“And” between values parts separate entries of the source, which are not always exact repeats. Equal values may be shown once.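 Assay format: 96-well plates, 48-hour exposure. GI50 = concentration required for 50% inhibition of growth. TGI: total growth inhibition.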

What all share (assay): DTP human tumour cell line panel, 48 h
In test [1] the test system is COLO 205 colon.
Test [2] has as its system XF 498 CNS.
Test [3] relates to SNB-75 CNS.
Test [4] deals with HT29 colon.
The test system of test [5] is 786-0 renal.
In test [6] the test system is OVCAR-5 ovarian.
Test [7] concerns DLD-1 colon.
Test [8] concerns HOP-18 NSCLC.
The test system of test [9] is ACHN renal.
Test [10] relates to SR leukemia.
The subject of test [11] is DU-145 prostate.

Turning to `Nc1c(C(=O)NC23CC4CC(CC(C4)C2)C3)[n+]([O-])c2ccccc2[n+]1[O-]`, the TGI in test [1], in [2], in test [3], in test [4], in test [5] and in test [6] was above 100 µM in each case. Moreover, the TGI in test [7], in [8] and in [9] was above 100 µM each time.
Take `CC(O)C(NC(=O)c1ccccc1)C(=O)N(Cc1ccccc1)Cc1ccccc1` (configuration not stated): the TGI in test [1], in [2], in test [3], in [5], in test [6] and in test [7] was above 100 µM throughout. Further, the TGI in test [8] and in test [9] was above 100 µM each time.
Turning to `CCCCCCCCCCCCCCCC(=O)OCC1OC(OC)C(NC(=O)N(CCCl)N=O)C(O)C1O` (configuration not stated), the TGI in test [1] is 47.4 µM; in test [2], 25.7 µM; in test [3], 38.5 µM; in test [4], 33.7 µM; in test [5], 14.9 µM; in test [6], above 74 µM. The TGI was 37.9 µM in [7]; above 100 µM in [8]; above 60.9 µM in [10]; 92.6 µM in test [11]; 57.2 µM in test [9].
With `CCC(C)c1cccc(C)c1NC(=O)C(=O)Cc1nc2ccccc2s1` (configuration not stated), the TGI in test [1], in test [2], in [3], in test [4], in [5] and in [6] was above 100 µM each time. The concentration for total growth inhibition (TGI) in test [7], in test [8] and in test [9] was above 100 µM in each case.
`CN(C)CCNC(=O)c1c2ccccc2cc2ccccc12`: the TGI in [1] is 48.3 µM; in test [2] it was 44.8 µM; in [3], above 100 µM; in test [4] it was above 100 µM; in test [5] it was above 100 µM; in test [6], above 100 µM. Moreover, the TGI in test [7] is above 100 µM; in test [8], above 100 µM; in test [10], 26.3 µM; in test [9], above 100 µM.
In the case of `C[N+](C)(C)CC(CC(=O)[O-])C1CC1` (configuration not stated), the TGI in test [1], in [2], in test [3], in test [4], in [5] and in test [6] was above 100 µM throughout. Also, the TGI in test [8] and in test [9] was above 100 µM in each case.
For the compound `O=C1/C(=C/c2ccc(Cl)c(Cl)c2)CNC/C1=C\c1ccc(Cl)c(Cl)c1`, the TGI in [1] came out at 17.3 µM; in test [2], 35.9 µM; in test [3], 33.9 µM; in test [4] it was 45.2 µM; in test [5], 5.53 µM; in test [6], 37.4 µM. The TGI in [7] was 3.84 µM; in test [8] it was above 91.9 µM; in [10], above 24 µM; in [11], above 100 µM; in test [9] it was 35.6 µM.
For the compound `O=c1ccn(C2(CO)C=C(CO)C(O)C2O)c(=O)[nH]1` (configuration not stated), the TGI in [1], in [3], in [5], in test [7], in test [8] and in [10] was above 25.7 µM throughout. In test [9], this compound displayed a TGI above 25.7 µM.
In the case of `CC#CC#C/C=C1\C=CC2(OC=CC2OC(C)=O)O1` (configuration not stated), the TGI is 28.2 µM and 33.3 µM in test [1]; 37.7 µM in test [2]; > 100 µM and 95.9 µM in [3]; 34.8 µM and 55.9 µM in [4]; > 100 µM and 33.6 µM in test [5]; above 100 µM in test [6]. Also, the TGI in [7] is 34.3 µM; in test [10], 89.6 µM and > 94.5 µM; in test [11] it was 37.7 µM; in test [9] it was 33.9 µM. Moreover, the GI50 in [5] is 44.3 µM and 18.1 µM; in [6], 30.6 µM and 9.87 µM.
As to `O=C(Oc1ccc2c(-c3ccccc3)c(C(=O)Nc3ccc(Cl)cc3)c(=O)oc2c1)c1ccccc1`, the TGI in test [1], in test [2], in test [3], in [4], in test [5] and in [7] was above 100 µM in each case. The TGI in [8] and in test [9] was above 100 µM each time.
`CN1C(=O)CCC1c1ccc2c(c1)oc(=O)n2C` (configuration not stated): the TGI in [1], in test [2], in test [3], in [4], in test [5] and in [6] was above 100 µM in each case. Further, the TGI in test [7], in [8] and in test [9] was above 100 µM each time.
For the compound `O=C1C(Br)=C(Br)C(=O)c2ccccc21`, the GI50 in test [2] is 15.1 µM and 2.98 µM; in [3], 27.2 µM and 3.27 µM; in test [9] it was 15.2 µM and 5.76 µM. For the same compound, the TGI in [2] was 29.7 µM and 9.41 µM; in [3], 79 µM and 11.1 µM; in test [4], > 100 µM and 21.8 µM; in test [5], 32.3 µM and 23.5 µM; in test [6], 41.7 µM and 22.9 µM; in test [7], 35.2 µM and 67.5 µM. For the same compound, the TGI in test [8] is 35.5 µM; in [10] it was 9.54 µM; in test [11], 33 µM; in test [9], 28.4 µM and 14.2 µM.
Turning to `NC(CCc1ncc(-c2ccccc2)s1)C(=O)O` (configuration not stated), the TGI in test [1], in [3], in test [4], in [5], in [7] and in test [8] was above 100 µM throughout. This compound yielded a TGI in test [9] above 100 µM.
In the case of `C=C1CCC2C(C)(CO)C(O)CCC2(C)C1C/C=C1/CCOC1=O` (configuration not stated), the TGI in test [1], in test [3], in test [4], in test [5], in test [6] and in test [7] was above 100 µM each time. The TGI in test [8], in test [10] and in test [9] was above 100 µM throughout.
On to `O=C1/C(=C/c2ccc(Cl)cc2)CCC1CN1CCOCC1` (configuration not stated), for which the TGI in test [1] was above 25.3 µM; in test [2], 4.97 µM; in test [3] it was 37.9 µM; in test [4] it was 23 µM; in test [5] it was 6.2 µM; in [6], 45.7 µM. In addition, the TGI in [7] came out at 11.3 µM; in [8] it was 29.7 µM; in test [10] it was 5.29 µM; in test [11], 16.1 µM; in test [9], 24.8 µM.
With `CCOC(OCC)C(CC)[Se]c1ccccc1` (configuration not stated), the TGI in test [1], in test [2], in [3], in [4], in [5] and in test [6] was above 100 µM throughout. Also, the TGI in test [7] was above 100 µM; in test [8], above 100 µM; in [10], 47.7 µM; in test [9] it was above 100 µM.
Regarding `COc1ccc(N=Nc2c(-c3ccccc3)nn(C(=O)CC(=O)Nc3ccccc3Cl)c2-c2ccccc2)cc1`, the TGI in test [1], in test [3], in test [4], in test [5], in [6] and in test [7] was above 100 µM each time. In addition, the values for the TGI in test [8], in test [10] and in [9] were above 100 µM, 11.3 µM and above 100 µM, respectively.
Consider `Cc1ccc(NC(=O)/C(=N/NC(=O)C[N+](C)(C)C)c2nc3ccccc3[nH]c2=O)cc1`, for which the TGI in [1], in test [3], in test [4], in test [5], in [6] and in test [7] was above 100 µM in each case. Also, the TGI in test [8], in test [10] and in [9] was above 100 µM in each case.
In the case of `O=C(/C=C/c1ccccc1O)c1cccc2ccccc12`, the TGI in test [1] was above 68.6 µM; in test [2], above 100 µM; in [3], above 100 µM; in [4] it was above 100 µM; in test [5], above 100 µM; in [6] it was above 100 µM. Besides, the total growth inhibition concentration (TGI) in test [7], in test [8], in test [10] and in test [9] was above 100 µM throughout.
Turning to `CN(C)C(=S)/N=c1\ss/c(=N\C(=S)N(C)C)n1Cc1ccco1`, the TGI in test [1], in [3], in [5], in [7], in [8] and in test [10] was above 100 µM in each case. In addition, the TGI in test [9] is above 100 µM.
Regarding `CC(=O)OCCOCNC(=S)N/N=C(\C)c1cccs1`, the TGI in test [1], in test [2], in [3], in [4], in test [5] and in [6] was above 100 µM each time. Also, the TGI in [7], in test [8], in [10] and in [9] was above 100 µM each time.
`Cc1cccc(C(C)C)c1NC(=O)CCl`: the TGI in test [1], in [3], in test [4], in test [5], in test [6] and in test [7] was above 100 µM throughout. For the same compound, the TGI in [8], in test [10] and in [9] was above 100 µM in each case.
As to `Cn1nc2ccc3nccc(NCCNCCO)c3c2n1`, the TGI in test [1] was 44 µM; in test [2] it was above 100 µM; in test [3], above 100 µM; in test [4], 70 µM; in [5] it was above 100 µM; in test [6], above 100 µM. Further, the TGI in [7], in [10] and in test [9] was above 100 µM throughout.
For the compound `OCC(O)COc1c(Cl)cc(Cl)cc1Cl` (configuration not stated), the TGI in test [1] was above 100 µM; in test [2], above 100 µM; in [3], above 100 µM; in test [4], above 100 µM; in test [5] it was above 76.5 µM; in [6], above 100 µM. Further, the TGI in test [7], in test [8], in test [10] and in [9] was above 100 µM throughout.
For the compound `CCOc1ccc(NCC2CC/C(=C\c3ccc(Cl)cc3)C2=O)cc1` (configuration not stated), the TGI is above 52.5 µM in test [1]; 37.1 µM in test [2]; above 76.5 µM in [3]; above 56.2 µM in test [4]; 25.8 µM in [5]; above 100 µM in test [6]. In addition, the TGI in [7] was 26.6 µM; in test [8], 54.6 µM; in [10] it was above 50.4 µM; in [9], above 60.3 µM.
As to `O=C1CCCC(O)=C1SC1=C(O)CCCC1=O`, the TGI in [1], in [3], in [4], in test [5], in [6] and in [7] was above 100 µM throughout. This compound also had a TGI in test [8] above 100 µM.
In the case of `CCOC(=O)C(=O)Nc1ccccc1OCC`, the TGI in [2], in test [4], in test [5], in test [6], in test [7] and in test [8] was above 100 µM throughout. In [9], this compound came in with a total growth inhibition concentration (TGI) above 100 µM.
For the compound `c1ccc2c(c1)Sc1ccccc1N2C1CN2CCC1CC2` (configuration not stated), the TGI in [1] was 34.5 µM; in [2], 28.8 µM; in [3], 25.4 µM; in [4], 53.9 µM; in test [5] it was 25.9 µM; in test [7] it was 29.6 µM. The TGI was determined as 47.5 µM in test [8] and 36.1 µM in [9].
